Results reported in PMC4746591, “Internal (His)6-tagging delivers a fully functional hetero-oligomeric class II chaperonin in high yield” (Scientific Reports, 2016).

T1: thermosome α subunit with a (His)6-tag downstream Lys144 (αK144Ht) (Thermoplasma acidophilum, UniProt P48424 1-545)
T1 construct: thermosome α subunit, Thermoplasma acidophilum, P48424; synthetic gene (Invitrogen) with six histidines inserted downstream of Lys144, in the loop between beta sheet β4 and alpha helix α6; Eight copies stand in the α8/β8 hexadecamer; also called K144-(His)6 α-subunit; (His)6-tagged α subunit; source: E. coli BL21(DE3) Codon Plus-RIL, co-expressed with the β subunit from the construct …
T1 sequence: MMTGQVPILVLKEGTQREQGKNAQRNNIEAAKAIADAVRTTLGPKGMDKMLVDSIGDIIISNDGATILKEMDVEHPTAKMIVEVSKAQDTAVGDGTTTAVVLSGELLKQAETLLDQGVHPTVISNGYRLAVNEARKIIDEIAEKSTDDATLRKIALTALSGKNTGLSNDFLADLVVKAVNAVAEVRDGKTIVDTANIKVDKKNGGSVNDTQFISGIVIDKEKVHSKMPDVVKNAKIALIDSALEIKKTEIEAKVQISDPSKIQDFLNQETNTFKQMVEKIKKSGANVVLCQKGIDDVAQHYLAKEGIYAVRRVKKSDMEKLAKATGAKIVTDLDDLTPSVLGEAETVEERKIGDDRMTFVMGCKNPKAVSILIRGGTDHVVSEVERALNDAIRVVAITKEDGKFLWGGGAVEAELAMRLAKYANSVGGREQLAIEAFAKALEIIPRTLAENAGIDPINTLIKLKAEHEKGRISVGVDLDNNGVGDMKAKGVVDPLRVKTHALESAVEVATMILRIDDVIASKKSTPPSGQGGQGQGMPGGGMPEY


Legend:
[1] = biological target: T2, (His)6-tagged α8/β8 thermosome (Ht thermosome, αK144Ht) (Thermoplasma acidophilum, UniProt P48424+P48425); test: coupled enzymatic steady-state ATPase assay; format: biochemical; details: 55 °C; tighter site of a two-site fit; read-out: KM1
T2 construct: gene thsA; full-length alpha with internal His6 inserted after Lys144, untagged beta; co-expressed in E. coli; α8/β8 hexadecamer, about 960 kDa

[2] = biological target: T1, thermosome α subunit with a (His)6-tag …; test: SEC; peak from the affinity column run on Superose 6 (or HiLoad 26/600 Superdex 200) in 25 mM TrisHCl, 150 mM NaCl, 5 mM EDTA pH 7.5, room temperature; single peak of about 960 kDa to 1 MDa (hexadecamer); SDS-PAGE of the peak; subunits co-expressed and co-purified; details: both partners purified

Molecule	Km [1] [µM]	stoichiometry N [2]
Nc1ncnc2c1ncn2[C@@H]1O[C@H](COP(=O)(O)OP(=O)(O)OP(=O)(O)O)[C@@H](O)[C@H]1O [ATP]	15	–
thermosome β subunit (natural protein, Thermoplasma acidophilum, thermosome β subunit, Thermoplasma acidophilum, P48425; untagged; Eight copies stand in the α8/β8 hexadecamer; also called un-tagged β-subunit; source: E. coli BL21(DE3) Codon Plus-RIL, co-expressed in tandem with the α subunit (αK144HTTherm or pETTherm α/β); in lysate, then purified with the complex) MIAGQPIFILKEGTKRESGKDAMKENIEAAIAISNSVRSSLGPRGMDKMLVDSLGDIVITNDGVTILKEMDVEHPAAKMMVEVSKTQDSFVGDGTTTAVIIAGGLLQQAQGLINQNVHPTVISEGYRMASEEAKRVIDEISTKIGADEKALLLKMAQTSLNSKSASVAKDKLAEISYEAVKSVAELRDGKYYVDFDNIQVVKKQGGAIDDTQLINGIIVDKEKVHPGMPDVVKDAKIALLDAPLEIKKPEFDTNLRIEDPSMIQKFLAQEENMLREMVDKIKSVGANVVITQKGIDDMAQHYLSRAGIYAVRRVKKSDMDKLAKATGASIVSTIDEISSSDLGTAERVEQVKVGEDYMTFVTGCKNPKAVSILVRGETEHVVDEMERSITDSLHVVASALEDGAYAAGGGATAAEIAFRLRSYAQKIGGRQQLAIEKFADAIEEIPRALAENAGLDPIDILLKLRAEHAKGNKTYGINVFTGEIEDMVKNGVIEPIRVGKQAIESATEAAIMILRIDDVIATKSSSSSSNPPKSGSSSESSED	–	1 α:β ratio
